This passage reports TGI and GI50 results from PubChem BioAssay (NCI).

Holding throughout (experiment): DTP human tumour cell line panel, 48 h
Assay [1] has as its system LOX IMVI melanoma.
Assay [2] deals with SNB-75 CNS.
Assay [3] deals with KM12 colon.
For assay [4], the system named is CCRF-CEM leukemia.
Assay [5] has as its system SK-OV-3 ovarian.
The subject of assay [6] is OVCAR-5 ovarian.
The test system of assay [7] is SNB-19 CNS.
Assay [8] relates to IGROV1 ovarian.
For assay [9], the system named is TK-10 renal.
Assay [10] has as its system COLO 205 colon.

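Growth conditions: 96-well plates. Treatment: test compound, 48 hours, 5 concentrations. Analysis: linear interpolation between bracketing concentrations; unreached endpoints set to highest concentration. GI50 is the concentration that inhibits growth by half. TGI denotes the concentration required for complete inhibition of growth.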

Broadly, the TGI is the concentration giving total growth inhibition. Low readings indicate greater sensitivity of the cells, high ones lower sensitivity of the cells. Take `CC(=O)c1sc2[n+](c1C)C(=O)/C(=C\c1ccccc1Cl)S2`: the TGI came to 35.8 µM in assay [1]; 65.9 µM in assay [2]; 35.2 µM in [3]; 91 µM in assay [4]; 47.7 µM in assay [5]; 50.1 µM in assay [6]. Moreover, the TGI in [7] amounted to 47.6 µM; in assay [8], 33.8 µM; in assay [9], 57.3 µM; in assay [10] it was 28 µM.

`Cc1ccc(S(=O)(=O)Nn2c(O)c(C#N)c(-c3ccc([N+](=O)[O-])cc3)c(C#N)c2=O)cc1`: the TGI in [1], in assay [2], in [3], in assay [4], in assay [5] and in assay [6] was > 100 µM each time. For the same compound, the TGI in assay [7], in assay [8], in assay [9] and in [10] was > 100 µM throughout.

Consider `O=c1cc(N2CCCC2)[nH]c(=O)n1-c1ccc(Cl)cc1`, for which the TGI in assay [1], in assay [2], in assay [3], in [4], in assay [5] and in assay [6] was > 100 µM throughout. In addition, the TGI in [7], in assay [8], in assay [9] and in [10] was > 100 µM in each case.

As for `CC(C)NC(=O)OCc1c(COC(=O)NC(C)C)c(-c2cc[n+](COC(=O)C3CCCCC3)cc2)n2c1CCC2`, the TGI in assay [1], in [2], in [3], in assay [4], in assay [5] and in [6] was > 100 µM in each case. The TGI in [7], in assay [8], in assay [9] and in assay [10] was > 100 µM throughout.

As for `O=C1C(c2c(O)[nH]c3ccc(S(=O)(=O)NCCO)cc23)=Nc2ccccc21`, the TGI in [1] is > 100 µM; in assay [2], 7.43 µM; in [3], 2.2 µM; in [4] it was > 100 µM; in assay [5], 20.3 µM; in [6], > 100 µM. The TGI is > 100 µM in assay [7], > 100 µM in [8], 42.4 µM in [9] and > 100 µM in assay [10].

With `C[C@H](CCC(=O)NCC(=O)O)[C@H]1CC[C@H]2[C@@H]3[C@H](O)C[C@@H]4C[C@H](O)CC[C@]4(C)[C@H]3CC[C@]12C`, the TGI in assay [1], in assay [2], in assay [3], in [4], in assay [5] and in assay [6] was > 100 µM in each case. Further, the TGI in [7], in assay [8], in assay [9] and in assay [10] was > 100 µM throughout.

Consider `CC(=O)NC1C(OCc2ccccc2)OC(CO)C(O)C1OCC(=O)N[C@@H](C)C(=O)N[C@H](CCC(=O)NCCCNc1ccc([N+](=O)[O-])c2[nH]c3ccccc3c(=O)c12)C(N)=O` (stereo not given in full), for which the TGI in assay [1], in [2], in assay [3], in assay [4], in assay [5] and in assay [6] was > 100 µM throughout. In addition, the TGI in [7], in [8], in assay [9] and in assay [10] was > 100 µM each time.

`CC/C(=C\c1ccc(OC)cc1)c1ccc(OC)cc1`: the TGI in [1], in [2], in [3], in [4], in assay [5] and in assay [6] was > 100 µM in each case. Further, the TGI in [7], in assay [8], in [9] and in assay [10] was > 100 µM each time.

As for `C(#Cc1ccccc1)SC1=C(c2ccccc2)S/C(=C(\SC#Cc2ccccc2)c2ccccc2)S1`, the TGI in assay [1], in assay [2], in [3], in [4], in assay [5] and in assay [6] was > 100 µM in each case. For the same compound, the TGI in assay [7], in assay [8], in [9] and in [10] was > 100 µM throughout.

For `O=P(O)(O)CN1CCNCCN(CP(=O)(O)O)CC1`, the TGI is > 100 µM in assay [1]; > 100 µM in assay [2]; > 100 µM in [3]; > 70.5 µM in [4]; > 100 µM in assay [5]; > 100 µM in [6]. In addition, the TGI in assay [7] is > 100 µM; in assay [8] it was > 100 µM; in [9], > 100 µM; in assay [10], 18.7 µM.

`CC[C@@]1(O)C(=O)OCc2c1cc1n(c2=O)Cc2c-1nc1ccccc1c2/C=N\NC(=O)C(N)Cc1c[nH]c2ccccc12` (stereo not given in full): the total growth inhibition concentration (TGI) in [1] is 3.27 µM; in assay [2], 1.83 µM; in assay [3], > 42.7 µM; in assay [4] it was 3.44 µM; in assay [5], > 84 µM; in [6], > 87 µM. The TGI in assay [7] was 1.74 µM; in assay [8], > 81.5 µM; in assay [9], > 100 µM; in assay [10] it was > 100 µM.

As to `COC(=O)c1ccc(NCC2=C(Br)C(=O)C=CC2=O)cc1Cl`, the TGI in assay [1] was 28.1 µM; in [2], > 100 µM; in assay [3], > 100 µM; in assay [4], > 100 µM; in assay [5], > 100 µM; in assay [6], 36.7 µM. Also, the TGI in assay [7] is > 100 µM; in assay [8], 30.5 µM; in [9], 30.9 µM; in [10] it was 31.6 µM.

In the case of `CCOC(=O)C(C/C=C/CO)N(C)C(=O)OC(C)(C)C` (stereo not given), the TGI in assay [1], in assay [2], in assay [3], in assay [4], in assay [5] and in assay [6] was > 100 µM throughout. Also, the TGI in assay [7], in [8], in [9] and in assay [10] was > 100 µM each time.

On to `CCOC(=O)C1=C(C)N(Cc2ccccc2)C2(O)C=CC(=O)C3=C(O)c4ccccc4C(=O)C312` (stereo not given), for which the TGI was 36.6 µM in assay [1]; 55.4 µM in assay [2]; 28.5 µM in [3]; 36.5 µM in assay [4]; > 100 µM in [5]; 31.7 µM in assay [6]. Besides, the TGI is 88.7 µM in assay [7], 17.5 µM in assay [8], 32.5 µM in [9] and 30.4 µM in assay [10].

In the case of `CC1(C)CC(=O)C2=C(C1)OC1(CC2c2ccc(Cl)cc2)CC(c2ccc(Cl)cc2)C2=C(CC(C)(C)CC2=O)O1` (stereo not given), the TGI was 64.2 µM in assay [1]; 37.1 µM in [2]; 40.6 µM in assay [3]; > 76.7 µM in assay [4]; 29.4 µM in [5]; > 79.1 µM in [6]. The TGI in assay [7] is 54.6 µM; in assay [8], 33.4 µM; in [9], > 83.8 µM; in assay [10], 36.6 µM.

`O=C1N(c2ccccc2)C(=S)/C(=C/c2ccc(Cl)cc2)N1c1ccc(Cl)cc1`: the TGI in [1] is 76.5 µM; in assay [2] it was 56.2 µM; in assay [3] it was > 100 µM; in assay [4], 61.1 µM; in assay [5], 95.7 µM; in assay [6], > 100 µM. The TGI was > 100 µM in assay [7], > 100 µM in [8], 89.8 µM in assay [9] and > 100 µM in [10].

As to `CN(C)CCNC(=O)c1c(O)ccc2c1c1c(n2CCc2ccccc2)C(=O)c2ccccc2C1=O`, the TGI amounted to 6.93 µM in assay [1]; 28.1 µM in assay [2]; 15.9 µM in assay [3]; 6.43 µM in assay [4]; 31.5 µM in [5]; 29.5 µM in assay [6]. Besides, the TGI in [7] worked out at 23.8 µM; in [8], 21.8 µM; in assay [9] it was 18.4 µM; in assay [10] it was 34.4 µM.

With `O=c1[nH]nc(-c2ccccc2)n1-n1cnnc1`, the TGI in [1], in assay [2], in [3], in [4], in [5] and in [6] was > 100 µM each time. Also, the TGI in assay [7], in assay [8], in assay [9] and in assay [10] was > 100 µM throughout.

For the compound `COc1cc(/C=N/NC2=NCCN2)ccc1O`, the TGI in assay [1], in assay [2], in assay [3], in assay [4], in [5] and in assay [6] was > 100 µM each time. Also, the TGI in assay [7], in assay [8], in assay [9] and in assay [10] was > 100 µM throughout.

Regarding `C=C1C(=O)OC2C3OC(C)(CCC(O)C3COC(C)=O)CC(OC(=O)/C(=C/C)COC(C)=O)C12` (stereo not given), the TGI in assay [1] came to 0.342 µM; in [2] it was 18.1 µM; in assay [3] it was 3.45 µM; in assay [4], 0.269 µM; in [5], 19.6 µM; in assay [6], 1.12 µM. Moreover, the TGI in assay [7] is 18.3 µM; in assay [8], 2.85 µM; in assay [9] it was 0.562 µM; in assay [10], 0.246 µM.

With `CCNC(=S)N/N=C(\C)c1cccc(C)n1`, the TGI in assay [1], in [2], in assay [3], in [4], in assay [5] and in [6] was > 100 µM throughout. The TGI in assay [7], in assay [8], in [9] and in assay [10] was > 100 µM in each case.

As for `O=C(Nc1ccc2ccccc2c1)c1cc2cc(CCl)ccc2oc1=O`, the TGI is > 100 µM in assay [1]; 38.5 µM in assay [2]; > 100 µM in [3]; > 100 µM in assay [4]; > 100 µM in assay [5]; > 100 µM in [6]. Further, the TGI in [7], in assay [8], in [9] and in assay [10] was > 100 µM each time.

Turning to `c1cc2c(cc1C1=NCCN1)c1cc(C3=NCCN3)ccc1n2CC1CCCCC1`, the TGI in assay [1] is 39.7 µM; in [2], 30.6 µM; in assay [3] it was > 100 µM; in assay [4], 50.2 µM; in [5] it was 81.8 µM; in [6], 95.6 µM. Besides, the TGI was 46.3 µM in [7], 69.7 µM in assay [8], > 100 µM in assay [9] and 20.4 µM in assay [10].

On to `S=c1nc[nH]c2c1ncn2C1CCCO1` (stereo not given), for which the TGI in assay [1], in assay [2], in assay [3], in [4], in assay [5] and in [6] was > 100 µM each time. For the same compound, the TGI in assay [7], in assay [8], in assay [9] and in assay [10] was > 100 µM throughout.

A word on the GI50: it is the concentration giving 50% growth inhibition. As to `C=C(C)[C@@H]1CC[C@]2(C(=O)NC(C)=O)CC[C@]3(C)[C@H](CC[C@@H]4[C@@]5(C)CCCNC(C)(C)[C@@H]5CC[C@]43C)[C@@H]12`, the GI50 is 1.18 µM in assay [1]; 1.4 µM in [2]; 1.51 µM in assay [3]; 1.65 µM in assay [4]; 1.63 µM in assay [5]; 1.53 µM in assay [6]. Also, the GI50 in [7] was 1.6 µM; in assay [8] it was 1.69 µM; in assay [9] it was 1.79 µM; in assay [10], 1.19 µM. Further, the TGI in [1] came out at 2.48 µM; in assay [2], 2.83 µM; in assay [3], 2.9 µM; in assay [4] it was 4.55 µM; in assay [5], 3.22 µM; in assay [6], 2.88 µM. Also, the TGI amounted to 2.96 µM in assay [7], 3.15 µM in [8], 3.38 µM in [9] and 2.98 µM in assay [10].
